According to patent publication EP4813991A1 (iLeadBMS Co., Ltd., priority 2023, dated 2025):
Where two headings read alike, the source gives them in different places.

Tests used:
[1] = target: CDK13 (Homo sapiens, UniProt Q14004); assay: CDK13 kinase inhibitory activity assay (33P-ATP filter binding); assay type: biochemical
Method in brief: (§1)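 Compound in 9 concentrations pre-incubated 20 min with kinase and substrate, then ^33P-γ-ATP added and reacted 120 min at room temperature. Phosphorylated substrate captured on filter, washed with 0.75 % phosphoric acid and counted; activity as % of DMSO control, IC50 fitted.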

[2] = system: MDA-MB-231 breast cancer cells; assay: Proliferation inhibitory activity assay against MDA-MB-231 breast cancer cells; assay type: cell-based; settings: Homo sapiens, 72 hours, CellTiter Glo, relative IC50
Method in brief: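 Cells grown in L-15 with 10% FBS at 37 °C, 0% CO2, then exposed next day to compounds at 9 concentrations (DMSO vehicle) for 72 h. Viability read by CellTiter Glo luminescence; relative IC50 from dose-response curve fit.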

[3] = target: CDK2 (Homo sapiens, UniProt P24941); assay: CDK2 kinase inhibitory activity assay and selectivity over CDK12; assay type: biochemical; settings: for IC50: kinase reaction 120 minutes, 33P-gamma-ATP; for CDK2/CDK12: ratio of CDK2 IC50 to CDK12 IC50
Description: (§2) Before initiating the CDK1 and CDK2 kinase reactions, each Example compound was dissolved and diluted in DMSO as a solvent across 9 concentration ranges at room temperature. The diluted solutions were then incubated with a mixture of kinase and substrate (and cofactors, if required) for 20 minutes. Next, radioisotope-labeled ATP (^33P-gamma-ATP) was added to proceed with the kinase reaction at room temperature for 120 minutes. After the reaction was completed, the reaction mixture was transferred to a filter paper that binds the radioisotope-labeled catalytic product (^33P-substrate). Unreacted ^33P-ATP was removed by washing with 0.75 % phosphoric acid, and then the radioactive phosphorylated substrate remaining on the filter paper was measured. Kinase activity data were expressed as a percentage of the kinase activity remaining in the test sample compared to a DMSO control group. The half-maximal inhibitory concentration (IC50) for each kinase was calculated using Prism software.
(§3) The CDK1 and CDK2 kinase inhibitory activities of the Example compounds measured by the above method were evaluated according to the following criteria, and the results are presented in Table 14.

[4] = target: T1, CDK12 (Homo sapiens, UniProt Q9NYV4); assay: CDK12 kinase inhibitory activity assay (33P-ATP filter binding); assay type: biochemical
T1 sequence (Q9NYV4 whole entry, species assumed): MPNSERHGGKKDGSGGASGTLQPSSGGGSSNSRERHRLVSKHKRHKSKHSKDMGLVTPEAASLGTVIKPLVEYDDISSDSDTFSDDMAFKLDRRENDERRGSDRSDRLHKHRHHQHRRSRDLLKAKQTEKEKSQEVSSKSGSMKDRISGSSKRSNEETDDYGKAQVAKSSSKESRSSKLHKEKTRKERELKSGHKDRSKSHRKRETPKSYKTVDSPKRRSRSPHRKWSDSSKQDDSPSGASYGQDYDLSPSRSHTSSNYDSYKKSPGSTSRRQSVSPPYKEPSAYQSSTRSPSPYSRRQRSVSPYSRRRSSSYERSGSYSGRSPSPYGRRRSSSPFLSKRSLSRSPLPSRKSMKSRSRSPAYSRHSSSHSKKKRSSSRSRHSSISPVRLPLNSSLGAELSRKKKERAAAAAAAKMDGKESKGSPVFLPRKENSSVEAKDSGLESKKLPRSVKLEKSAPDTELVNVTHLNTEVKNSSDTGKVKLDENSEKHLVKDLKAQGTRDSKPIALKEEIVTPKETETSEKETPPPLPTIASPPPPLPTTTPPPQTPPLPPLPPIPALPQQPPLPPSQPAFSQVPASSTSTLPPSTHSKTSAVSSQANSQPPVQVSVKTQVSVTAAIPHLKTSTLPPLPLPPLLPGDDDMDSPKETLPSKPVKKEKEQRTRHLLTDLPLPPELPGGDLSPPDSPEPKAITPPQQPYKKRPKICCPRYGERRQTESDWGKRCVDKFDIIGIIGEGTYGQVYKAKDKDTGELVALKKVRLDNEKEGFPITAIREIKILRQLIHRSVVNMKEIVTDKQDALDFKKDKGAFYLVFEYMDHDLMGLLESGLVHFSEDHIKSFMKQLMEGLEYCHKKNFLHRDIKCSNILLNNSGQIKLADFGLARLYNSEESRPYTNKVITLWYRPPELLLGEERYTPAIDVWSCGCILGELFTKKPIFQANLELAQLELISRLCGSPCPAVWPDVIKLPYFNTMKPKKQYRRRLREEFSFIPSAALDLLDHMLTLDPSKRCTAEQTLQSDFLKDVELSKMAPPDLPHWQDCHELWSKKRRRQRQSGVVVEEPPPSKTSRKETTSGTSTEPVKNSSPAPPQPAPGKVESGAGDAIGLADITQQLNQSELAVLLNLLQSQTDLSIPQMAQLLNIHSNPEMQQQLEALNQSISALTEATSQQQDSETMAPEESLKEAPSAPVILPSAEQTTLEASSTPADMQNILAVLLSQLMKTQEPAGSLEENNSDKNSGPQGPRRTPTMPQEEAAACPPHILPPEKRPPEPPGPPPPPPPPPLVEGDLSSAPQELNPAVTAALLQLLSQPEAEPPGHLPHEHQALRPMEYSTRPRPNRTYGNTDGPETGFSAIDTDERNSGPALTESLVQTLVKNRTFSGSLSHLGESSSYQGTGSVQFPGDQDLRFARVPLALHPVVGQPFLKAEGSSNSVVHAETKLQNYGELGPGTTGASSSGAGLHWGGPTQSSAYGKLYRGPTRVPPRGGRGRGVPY
T1 sequence (O75909 whole entry partner, species assumed): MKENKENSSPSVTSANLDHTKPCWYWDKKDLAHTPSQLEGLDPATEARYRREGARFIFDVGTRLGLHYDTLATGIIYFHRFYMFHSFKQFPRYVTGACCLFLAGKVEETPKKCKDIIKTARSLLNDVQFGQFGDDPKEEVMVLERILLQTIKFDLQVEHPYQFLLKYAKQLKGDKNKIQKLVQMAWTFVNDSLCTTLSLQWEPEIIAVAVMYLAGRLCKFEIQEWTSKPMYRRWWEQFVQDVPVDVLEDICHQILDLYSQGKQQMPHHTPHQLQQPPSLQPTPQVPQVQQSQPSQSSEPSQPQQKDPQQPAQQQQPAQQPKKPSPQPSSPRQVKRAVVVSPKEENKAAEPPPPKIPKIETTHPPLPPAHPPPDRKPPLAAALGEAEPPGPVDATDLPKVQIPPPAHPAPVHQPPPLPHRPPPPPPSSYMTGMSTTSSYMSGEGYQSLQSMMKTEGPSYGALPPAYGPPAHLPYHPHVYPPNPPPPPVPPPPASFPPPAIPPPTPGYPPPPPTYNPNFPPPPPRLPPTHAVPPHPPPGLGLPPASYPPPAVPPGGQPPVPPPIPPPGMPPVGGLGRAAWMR
Method in brief: as §1

[5] = target: CDK1 (Homo sapiens, UniProt P06493); assay: CDK1 kinase inhibitory activity assay and selectivity over CDK12; assay type: biochemical; settings: for IC50: kinase reaction 120 minutes, 33P-gamma-ATP; for CDK1/CDK12: ratio of CDK1 IC50 to CDK12 IC50
CDK1, sequence (P06493 whole entry, species assumed): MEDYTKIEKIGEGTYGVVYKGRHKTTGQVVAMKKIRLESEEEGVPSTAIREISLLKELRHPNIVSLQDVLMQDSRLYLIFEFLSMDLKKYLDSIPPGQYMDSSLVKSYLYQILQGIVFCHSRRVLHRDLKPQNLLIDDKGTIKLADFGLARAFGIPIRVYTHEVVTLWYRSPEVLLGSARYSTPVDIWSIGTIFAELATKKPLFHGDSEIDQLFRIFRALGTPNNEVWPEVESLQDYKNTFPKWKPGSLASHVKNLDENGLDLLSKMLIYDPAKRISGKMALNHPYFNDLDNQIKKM
CDK1, sequence (P14635 whole entry partner, species assumed): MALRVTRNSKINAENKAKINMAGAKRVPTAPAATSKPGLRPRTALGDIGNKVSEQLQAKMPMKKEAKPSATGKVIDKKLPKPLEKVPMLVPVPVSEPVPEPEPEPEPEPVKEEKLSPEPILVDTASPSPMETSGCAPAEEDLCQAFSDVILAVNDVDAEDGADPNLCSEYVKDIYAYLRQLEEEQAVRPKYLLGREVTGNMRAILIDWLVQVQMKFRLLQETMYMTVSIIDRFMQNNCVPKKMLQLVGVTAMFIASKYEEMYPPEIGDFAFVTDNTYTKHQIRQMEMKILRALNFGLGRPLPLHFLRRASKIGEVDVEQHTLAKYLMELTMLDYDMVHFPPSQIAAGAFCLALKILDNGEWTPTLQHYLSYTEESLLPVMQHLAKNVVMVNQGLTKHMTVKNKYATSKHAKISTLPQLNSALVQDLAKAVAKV
Description: as §2, §3

[6] = target: T1, CDK12; assay: Cellular CDK12 inhibitory activity assay (Ser2 phosphorylation of RNA polymerase II subunit B1 CTD in MDA-MB-231 cells); assay type: cell-based; design: using MDA-MB-231 breast cancer cells; endogenous in cells; host or cells: MDA-MB-231; settings: MDA-MB-231 cells, 6 hours treatment; read-out: pRpbl CTD S2 IC50
Method in brief: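 MDA-MB-231 cells in L-15 with 10 % FBS were treated with compound at 9 concentrations for 6 h at 37 °C, 0 % CO2. In-Cell Western read phospho-Ser2 and total RNA polymerase II CTD on a Li-COR Odyssey; IC50 from 4-parameter dose-response fit.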

[7] = kinase reaction 120 minutes, 33P-gamma-ATP, read-out: CDK13 IC50
[8] = kinase reaction 120 minutes, 33P-gamma-ATP, read-out: CDK12 IC50

CDK13, sequence (Q14004 whole entry, species assumed): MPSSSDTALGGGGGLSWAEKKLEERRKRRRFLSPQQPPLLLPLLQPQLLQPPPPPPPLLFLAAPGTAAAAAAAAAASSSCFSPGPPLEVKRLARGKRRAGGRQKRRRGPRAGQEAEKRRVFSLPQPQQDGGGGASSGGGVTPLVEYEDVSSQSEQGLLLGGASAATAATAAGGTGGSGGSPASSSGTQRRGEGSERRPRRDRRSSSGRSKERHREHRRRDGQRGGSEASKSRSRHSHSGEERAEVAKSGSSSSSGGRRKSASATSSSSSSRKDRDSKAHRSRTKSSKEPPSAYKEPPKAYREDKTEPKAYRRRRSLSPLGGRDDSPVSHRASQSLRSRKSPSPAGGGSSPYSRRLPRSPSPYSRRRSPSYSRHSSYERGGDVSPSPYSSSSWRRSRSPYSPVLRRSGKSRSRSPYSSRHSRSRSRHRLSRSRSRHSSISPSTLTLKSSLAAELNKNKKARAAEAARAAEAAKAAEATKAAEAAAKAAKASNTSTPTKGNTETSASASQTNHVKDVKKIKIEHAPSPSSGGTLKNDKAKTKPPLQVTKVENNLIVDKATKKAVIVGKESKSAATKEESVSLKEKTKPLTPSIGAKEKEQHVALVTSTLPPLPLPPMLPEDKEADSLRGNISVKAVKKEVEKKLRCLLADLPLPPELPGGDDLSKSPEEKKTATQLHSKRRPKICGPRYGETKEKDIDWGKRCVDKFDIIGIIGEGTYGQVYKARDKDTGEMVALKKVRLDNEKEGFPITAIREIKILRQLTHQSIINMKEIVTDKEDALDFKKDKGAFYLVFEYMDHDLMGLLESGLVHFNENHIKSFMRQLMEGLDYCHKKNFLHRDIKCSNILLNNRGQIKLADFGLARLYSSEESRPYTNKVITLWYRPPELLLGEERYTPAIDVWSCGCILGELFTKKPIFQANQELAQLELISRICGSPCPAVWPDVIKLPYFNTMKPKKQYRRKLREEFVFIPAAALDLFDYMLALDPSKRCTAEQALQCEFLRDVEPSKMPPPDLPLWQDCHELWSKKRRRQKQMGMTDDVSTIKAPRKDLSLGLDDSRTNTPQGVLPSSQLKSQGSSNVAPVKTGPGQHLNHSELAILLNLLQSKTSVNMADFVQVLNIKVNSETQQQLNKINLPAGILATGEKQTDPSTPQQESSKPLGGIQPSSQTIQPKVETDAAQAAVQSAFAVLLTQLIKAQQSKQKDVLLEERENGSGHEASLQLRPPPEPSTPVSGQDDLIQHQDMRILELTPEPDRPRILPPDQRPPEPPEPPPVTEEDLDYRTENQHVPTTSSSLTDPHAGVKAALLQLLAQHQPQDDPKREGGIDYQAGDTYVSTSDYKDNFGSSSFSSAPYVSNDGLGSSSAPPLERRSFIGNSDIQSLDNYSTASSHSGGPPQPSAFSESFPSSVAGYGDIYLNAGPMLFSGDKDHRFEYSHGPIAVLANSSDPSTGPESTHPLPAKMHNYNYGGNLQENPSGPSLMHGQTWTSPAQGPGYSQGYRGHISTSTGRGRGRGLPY
CDK13, sequence (O75909 whole entry partner, species assumed): as the sequence (O75909 whole entry partner, species assumed) above

| Structure (SMILES) | IC50 [1, 7] [nM] | IC50 [2] [nM] | IC50 [3] [nM] | IC50 [4, 8] [nM] | IC50 [5] [nM] | CDK1/CDK12 [5] | IC50 [6] [nM] | IC50 [1] [nM] | CDK2/CDK12 [3] | IC50 [4] [nM] |
| --- | --- | --- | --- | --- | --- | --- | --- | --- | --- | --- |
| OC1CN(c2cc(NCc3nc4cc(Cl)c(Cl)cc4[nH]3)c3ncc(C(F)(F)F)n3n2)C1 [Example 41, 1-(8-(((5,6-dichloro-1H-benzo[d]imidazol-2-yl)methyl)amino)-3-(trifluoromethyl)imidazo[1,2-b]pyridazin-6-yl)azetidin-3-ol] | < 100 | 50 to 500 | > 1000 | < 100 | > 1000 | B (100-fold < CDK1/CDK12 or CDK2/CDK12 ≤ 500-fold) | < 300 |  | B (100-fold < CDK1/CDK12 or CDK2/CDK12 ≤ 500-fold) |  |
| Fc1ccc2nc(CNc3cc(N4CCNCC4)nn4c(C(F)(F)F)cnc34)[nH]c2c1F [Example 17] | < 100 | ≤ 50 | > 1000 | < 100 | > 1000 | A (CDK1/CDK12 or CDK2/CDK12 > 500-fold) | < 300 |  | B (100-fold < CDK1/CDK12 or CDK2/CDK12 ≤ 500-fold) |  |
| O=C(CO)NC1CCN(c2cc(NCc3nc4cc(Cl)c(Cl)cc4[nH]3)c3ncc(C(F)(F)F)n3n2)CC1 [Example 115, N-(1-(8-(((5,6-dichloro-1H-benzo[d]imidazol-2-yl)methyl)amino)-3-(trifluoromethyl)imidazo[1,2-b]pyridazin-6-yl)piperidin-4-yl)-2-hydroxyacetamide] |  | ≤ 50 | > 1000 | < 100 | > 1000 | B (100-fold < CDK1/CDK12 or CDK2/CDK12 ≤ 500-fold) | < 300 | < 100 | B (100-fold < CDK1/CDK12 or CDK2/CDK12 ≤ 500-fold) |  |
| Fc1ccc2[nH]c(CNc3cc(N4CCOCC4)nn4c(C(F)(F)F)cnc34)nc2c1 [Example 77, N-((5-fluoro-1H-benzo[d]imidazol-2-yl)methyl)-6-morpholino-3-(trifluoromethyl)imidazo[1,2-b]pyridazin-8-amine] | < 100 | ≤ 50 | > 1000 | < 100 | > 1000 | A (CDK1/CDK12 or CDK2/CDK12 > 500-fold) | < 300 |  | B (100-fold < CDK1/CDK12 or CDK2/CDK12 ≤ 500-fold) |  |
| FC(F)(F)c1cnc2c(NCc3nc4cc(Cl)c(Cl)cc4[nH]3)cc(N3CC4CCC(C3)O4)nn12 [Example 42] | < 100 | 50 to 500 | > 1000 |  | > 1000 |  | 300 to 3000 |  |  | 100 to 500 |
| C#Cc1cnc2c(NCc3nc4ccc(F)c(F)c4[nH]3)cc(-c3cnc(N)nc3)nn12 [Example 22, 6-(2-aminopyrimidin-5-yl)-N-((6,7-difluoro-1H-benzo[d]imidazol-2-yl)methyl)-3-ethynylimidazo[1,2-b]pyridazin-8-amine] |  | 50 to 500 | > 1000 | < 100 | > 1000 | A (CDK1/CDK12 or CDK2/CDK12 > 500-fold) | < 300 | < 100 | A (CDK1/CDK12 or CDK2/CDK12 > 500-fold) |  |
| CN1CC2CCC(C1)N2c1cc(NCc2nc3cc(Cl)c(Cl)cc3[nH]2)c2ncc(C(F)(F)F)n2n1 [Example 96, N-((5,6-dichloro-1H-benzo[d]imidazol-2-yl)methyl)-6-(3-methyl-3,8-diazabicyclo[3.2.1]octan-8-yl)-3-(trifluoromethyl)imidazo[1,2-b]pyridazin-8-amine] | < 100 | ≤ 50 |  | 100 to 500 |  |  | < 300 |  |  |  |
| Fc1ccc2nc(CNc3cc(N4CCN(C5CC5)CC4)nn4c(C(F)(F)F)cnc34)[nH]c2c1F [Example 28, 6-(4-cyclopropylpiperazin-1-yl)-N-((6,7-difluoro-1H-benzo[d]imidazol-2-yl)methyl)-3-(trifluoromethyl)imidazo[1,2-b]pyridazin-8-amine] |  | 50 to 500 |  | 100 to 500 |  |  | 300 to 3000 | 100 to 500 |  |  |
| Fc1cc2nc(CNc3cc(N4CCOCC4)nn4c(C(F)(F)F)cnc34)[nH]c2cc1F [Example 70, N-((5,6-difluoro-1H-benzo[d]imidazol-2-yl)methyl)-6-morpholino-3-(trifluoromethyl)imidazo[1,2-b]pyridazin-8-amine] | < 100 | ≤ 50 |  | < 100 |  |  | < 300 |  |  |  |
| Fc1ccc2nc(CNc3cc(N4CCC4)nn4c(C(F)(F)F)cnc34)[nH]c2c1F [Example 15] | < 100 | ≤ 50 |  | 100 to 500 |  |  | 300 to 3000 |  |  |  |
| NC1CN(c2cc(NCc3nc4cc(Cl)c(Cl)cc4[nH]3)c3ncc(C(F)(F)F)n3n2)C1 [Example 36] | < 100 | ≤ 50 |  | < 100 |  |  | < 300 |  |  |  |

Second part, led by results:

| IC50 [1, 7] [nM] | IC50 [2] [nM] | IC50 [3] [nM] | IC50 [4, 8] [nM] | IC50 [5] [nM] | CDK1/CDK12 [5] | IC50 [6] [nM] | IC50 [1] [nM] | Structure (SMILES) | CDK2/CDK12 [3] | IC50 [4] [nM] |
| --- | --- | --- | --- | --- | --- | --- | --- | --- | --- | --- |
| < 100 | ≤ 50 | > 1000 | 100 to 500 | > 1000 | C (CDK1/CDK12 or CDK2/CDK12 ≤ 100-fold) | < 300 |  | FC(F)(F)c1cnc2c(NCc3nc4cc(Cl)c(Cl)cc4[nH]3)cc(N3CCOCC3)nn12 [Example 68, N-((5,6-dichloro-1H-benzo[d]imidazol-2-yl)methyl)-6-morpholino-3-(trifluoromethyl)imidazo[1,2-b]pyridazin-8-amine] | C (CDK1/CDK12 or CDK2/CDK12 ≤ 100-fold) |  |
| < 100 | 50 to 500 |  | < 100 |  |  | 300 to 3000 |  | O=C(CO)NC1CN(c2cc(NCc3nc4cc(Cl)c(Cl)cc4[nH]3)c3ncc(C(F)(F)F)n3n2)C1 [Example 103, N-(1-(8-(((5,6-dichloro-1H-benzo[d]imidazol-2-yl)methyl)amino)-3-(trifluoromethyl)imidazo[1,2-b]pyridazin-6-yl)azetidin-3-yl)-2-hydroxyacetamide] |  |  |
| < 100 | ≤ 50 |  | < 100 |  |  | < 300 |  | CC(=O)N1CCN(c2cc(NCc3nc4cc(Cl)c(Cl)cc4[nH]3)c3ncc(C(F)(F)F)n3n2)CC1 [Example 51, 1-(4-(8-(((5,6-dichloro-1H-benzo[d]imidazol-2-yl)methyl)amino)-3-(trifluoromethyl)imidazo[1,2-b]pyridazin-6-yl)piperazin-1-yl)ethan-1-one] |  |  |
|  | ≤ 50 |  | 100 to 500 |  |  | < 300 | 100 to 500 | N#CC1(O)CN(c2cc(NCc3nc4cc(Cl)c(Cl)cc4[nH]3)c3ncc(C(F)(F)F)n3n2)C1 [Example 59, 1-(8-(((5,6-dichloro-1H-benzo[d]imidazol-2-yl)methyl)amino)-3-(trifluoromethyl)imidazo[1,2-b]pyridazin-6-yl)-3-hydroxyazetidine-3-carbonitrile] |  |  |
| < 100 | ≤ 50 |  | < 100 |  |  | 300 to 3000 |  | N#CC1CCN(c2cc(NCc3nc4ccc(F)c(F)c4[nH]3)c3ncc(C(F)(F)F)n3n2)CC1 [Example 56, 1-(8-(((6,7-difluoro-1H-benzo[d]imidazol-2-yl)methyl)amino)-3-(trifluoromethyl)imidazo[1,2-b]pyridazin-6-yl)piperidine-4-carbonitrile] |  |  |
